Results from patent EP2116263A1, “Reversibly light-switchable drug-conjugates” (priority 2008, dated 2009).
“Also recorded” adds a separate entry of the source. Where two headings read alike, the source gives them in different places.

Tests used:
[1] = biological target: Cyp18/CsA-AB-CsA/Cyp18 tertiary complex (Homo sapiens, UniProt P62937); test: Coprecipitation of His4-Cyp18 with GST-Cyp18 matrix on glutathione-Sepharose; type: binding
Excerpt: The proteins were eluted by boiling with sample buffer and separated by SDS-PAGE, transferred onto nitrocellulose membrane and probed with anti-His and anti-GST antibodies.

[2] = biological target: Recombinant hCyp18 PPIase activity (Homo sapiens, UniProt P62937); test: Cyp18 PPIase activity, protease coupled assay; type: biochemical
Procedure: The PPIase activity was measured at 7 °C with a protease coupled assay on a Hewlett-Packard 8452a diode array spectrophotometer (Fischer et al., 1984). To 1220 µl Hepes buffer pH 7.8, Cyp18 and inhibitor of desired concentration are added. After 10 min of incubation, protease and substrate were added. The final substrate concentration is 40 µM in 1280 µl. The cis/trans isomerization was monitor at 390 nm with 510 nm as a reference. The rate is calculated according to first order reaction. Recombinant hCyp18 PPIase activity was measured with the peptide Suc-Ala-Phe-Pro-Phe-NH-Np as substrate. The substrate was dissolved in DMSO (10 mg/ml). α-Chymotrypsin was used as auxiliary protease. The residual enzymatic activity was plotted versus the inhibitor concentration and used for calculating the inhibitor constants Ki as described before (Schutkowski et al., 1995).
PPIase activities are measured with a protease coupled assay, using Suc-Ala-Phe-Pro-Phe-NH-Np as substrate and chymotrypsin as auxiliary protease, in 35 mM HEPES buffer pH 7.8, at 7 °C. Cyp18 concentration is 2.5 nM. […] Irradiations have been performed with light of 740 nm for 45 min. […]

[3] = biological target: calcineurin (CaN) phosphatase activity (Homo sapiens, UniProt P62937+P63098+Q08209); test: Calcineurin (CaN) phosphatase activity inhibition assay in the presence of Cyp18; settings: for change of CaN inhibition between cis and trans forms / upon light irradiation: in the presence of Cyp18, absence of SA
Procedure: The reaction mixture containing 700 µM peptide, 0.2 µM cAMP, 100 µCi[γ-^33P]ATP and 10 kU PKA in a final volume of 100 µl in the buffer (containing 20 mM MES, pH 6.5, 0.4 mM EDTA, 0.2 mM EGTA, 50 µM CaCl2 and 2 mM MgCl2) was incubated for one hour at 30 °C. The phosphorylated peptides were separated from unincorporated labeled ATP by 1 ml RP-C2 clean up extraction column (Amchro, Sulzbach, Germany). The eluted peptide (with 70% acetonitrile) was lyophilized and reconstituted with de-ionized water.
The scintillation proximity concept has been applied for measuring calcineurin activity using ScintiPlate wells coated with streptavidin. […] Biotinylated [γ-^33P] RII peptide was added to a final concentration of 100 nM and the total assay volume is 100 µl. After incubation at 30 °C for 30 min, 90 µl of the reaction mixture was transferred to the ScintiPlate well coated with streptavidin. The streptavidin immobilizes the biotinylated RII peptide on the wells. After 20 min at 22 °C the well was washed once with water and the RII associated [γ-^33P] was measured in the top-counter MicroBeta (Wallac, Turku, Finland).

CaN and Cyp18 = test: Cross-linking (BS3) of CaN and Cyp18 in treated Jurkat cells, anti-CaN blot; type: cell-based, human
Procedure: Cells were lysed and the clear supernatants were incubated with calmodulin sepharose. Cross-linking reagent BS^3 was added to the EDTA eluates. After TCA precipitation, the samples were separated by SDS-PAGE and probed with anti-CaN antibody and detected by enhanced chemiluminescent reaction.

Chain of Recombinant hCyp18 PPIase activity (P62937 whole entry): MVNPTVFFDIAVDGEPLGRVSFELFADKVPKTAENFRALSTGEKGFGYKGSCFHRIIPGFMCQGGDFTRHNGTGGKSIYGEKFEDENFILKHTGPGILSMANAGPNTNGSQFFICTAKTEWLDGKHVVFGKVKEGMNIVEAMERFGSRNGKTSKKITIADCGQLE
Chain of Cyp18/CsA-AB-CsA/Cyp18 tertiary complex (P62937 whole entry, one chain of several): as the sequence (P62937 whole entry) above

SMILES | coprecipitation of His4-Cyp18 with GST-Cyp18 ([1]; photoswitched cis (irradiated)) | coprecipitation of His4-Cyp18 with GST-Cyp18 ([1]; trans (non-irradiated)) | increase of inhibitory potency towards the PPIase activity of Cyp18, cis compared to trans ([2]; irradiated cis vs non-irradiated trans) [fold] | Cyp18 inhibitory profile after thermal cis to trans isomerization ([2]; irradiated sample kept in darkness overnight at room temperature) | IC50 ([2]; irradiated, cis, absence of SA, Cyp18 2.5 nM, 7 °C, read-out: IC50, inhibition of Cyp18 PPIase activity) [nM] | IC50 ([2]; non-irradiated, trans, absence of SA, Cyp18 2.5 nM, 7 °C, read-out: IC50, inhibition of Cyp18 PPIase activity) [nM] | change of CaN inhibition between cis and trans forms / upon light irradiation [3] | IC50 ([2]; IC50, inhibition of Cyp18 PPIase activity, cis isomer bound to the borrowed protein SA (4 equivalents)) [nM] | IC50 ([2]; IC50, inhibition of Cyp18 PPIase activity, irradiated, cis, absence of SA, Cyp18 2.5 nM, 7 °C) [nM] | IC50 ([2]; IC50, inhibition of Cyp18 PPIase activity, non-irradiated, trans, absence of SA, Cyp18 2.5 nM, 7 °C) [nM] | IC50 ([2]; IC50, inhibition of Cyp18 PPIase activity, trans isomer bound to the borrowed protein SA (4 equivalents)) [nM] | trans/cis difference of activity in CaN inhibition assay ([3]; absence of SA) | IC50, CaN inhibition ([3]; non-irradiated (trans), in the presence of SA) | inhibition at 10 µM ([3]; read-out: CaN inhibition) [%] | cross-linking between CaN and Cyp18 (CaN and Cyp18; absence of SA, conjugate in photoswitched cis form) | cross-linked CaN-Cyp18-SA (CaN and Cyp18; cells transfected with SA, cis) | cross-linking between CaN and Cyp18 (CaN and Cyp18; cells transfected with SA, non-irradiated trans) | interaction of the Cyp18-trans-CsA-AB-Biotin-SA complex with CaN (CaN and Cyp18; cells transfected with SA, trans)
C/C=C/C[C@@H](C)[C@@H](O)[C@H]1C(=O)N[C@@H](CC)C(=O)N(C)CC(=O)N(C)[C@@H](CC(C)C)C(=O)N[C@@H](C(C)C)C(=O)N(C)[C@@H](CC(C)C)C(=O)N[C@@H](C)C(=O)N[C@H](COCC(=O)Nc2ccc(N=Nc3ccc(NC(=O)COC[C@H]4NC(=O)[C@H](C)NC(=O)[C@H](CC(C)C)N(C)C(=O)[C@H](C(C)C)NC(=O)[C@H](CC(C)C)N(C)C(=O)CN(C)C(=O)[C@H](CC)NC(=O)[C@H]([C@H](O)[C@H](C)C/C=C/C)N(C)C(=O)[C@H](C(C)C)N(C)C(=O)[C@H](CC(C)C)N(C)C(=O)[C@H](CC(C)C)N(C)C4=O)cc3)cc2)C(=O)N(C)[C@@H](CC(C)C)C(=O)N(C)[C@@H](CC(C)C)C(=O)N(C)[C@@H](C(C)C)C(=O)N1C [CsA-AB-CsA] | coprecipitated together with GST-Cyp18 | only a minor amount | 7 | reversed | 30 ± 3 | 206 ± 22 | significant increase |  |  |  |  |  |  |  |  |  |  | 
C/C=C/C[C@@H](C)[C@@H](O)[C@H]1C(=O)N[C@@H](CC)C(=O)N(C)CC(=O)N(C)[C@@H](CC(C)C)C(=O)N[C@@H](C(C)C)C(=O)N(C)[C@@H](CC(C)C)C(=O)N[C@@H](C)C(=O)N[C@H](COCC(=O)Nc2ccc(N=Nc3ccc(NC(=O)CCCC[C@@H]4SC[C@@H]5NC(=O)N[C@@H]54)cc3)cc2)C(=O)N(C)[C@@H](CC(C)C)C(=O)N(C)[C@@H](CC(C)C)C(=O)N(C)[C@@H](C(C)C)C(=O)N1C [CsA-AB-Biotin] |  |  |  |  |  |  | only a minor change | 4.45 ± 0.55 | 2.21 ± 0.02 | 2.96 ± 0.68 | 9.37 ± 0.75 | 1.4 | too high to be determined precisely | 30 | intensive cross-linking | detected only in sample treated with cis-CsA-AB-Biotin; also recorded: can only be detected in samples treated with cis-CsA-AB-Biotin | weakest cross-linking effect | does not interact with CaN
